Assay results from US10596216B2, “Use of a Withania extract for the treatment of amyloid-related diseases” (Ethnodyne, priority 2015, dated 2020).

Tested on: rat primary cortical cultures
Assay: Neuroprotective effect following exposure to glutamate (Example 12)
Type: cell-based
Details: glutamate 40 μM, 20 min, primary cortical neuron culture
Procedure: This study investigated the neuroprotective effect of the composition WEB-2 on rat primary cortical cultures following exposure to glutamate (40 μM, 20 min application), an in vitro AD model.
Pregnant Wistar females rat (JanvierLabs, France) at 15 days of gestation were killed by cervical dislocation. The foetuses were prepared as in example 11.
Once obtained, the cells were seeded at a density of 30,000 per well in 96-well plates precoated with poly-L-lysine (Batch: 3102256, Corning Biocoat) and were cultured at 37° C. in an air (95%)-CO2 (5%) incubator. The medium was changed every 2 days. The cortical neurons were intoxicated with glutamate solution.
On day 13 after culture, glutamate (Batch: 061M0030V, Sigma) was added into cell culture to a final concentration of 40 μM diluted in control medium for 20 min. After 20 min, the cells were washed-out and new fresh medium containing or not WEB-2 was added for 48 h additional time. […]
The immunolabeled cultures were automatically examined with ImageXpress equipped with a LED at ×20 magnification. For each condition (6 culture wells), 30 automatically fields per well (representing ˜80% of the total surface of the well) were analyzed. The total number of neurons and neurite length were automatically analyzed using MetaXpress software.

Structure (SMILES): N[C@@H](CCC(=O)O)C(=O)O [Glutamate, glutamate]
- neurite network loss induced: neurite network loss
- neuronal death induced: significant neuronal death
